Measured values published in patent US20240342292A1, “Compounds for the Degradation of EGFR Kinase” (BeiGene Switzerland GmbH, priority 2021, published 2024).
Where two headings read alike, the source gives them in different places.

Key:
Del19/T790M/C797S EGFR = assay: EGFR degradation HTRF assay in H1975-clone #28 (DTC) cells; assay type: cell-based; conditions: H1975 # 28 DTC (Del19/T790M/C797S), 16h treatment; for DC50: HTRF; for Dmax (%): maximum percentage of degradation
Outline: (§1)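 Cells carrying only lentiviral mutant EGFR, since endogenous alleles were removed by CRISPR, received compounds on day 2 for 16 h. Final concentrations ran from 10 uM down in 5-fold steps over 8 doses. After lysis, EGFR levels were quantified by HTRF and DC50 derived by curve fitting.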

L858R/T790M/C797S EGFR = target: T1, L858R/T790M/C797S EGFR (Homo sapiens, UniProt P00533, C797S/L858R/T790M); assay: EGFR degradation HTRF assay in H1975-clone #25 (LTC) cells; assay type: cell-based; conditions: 16h treatment; for DC50: H1975 # 25-LTC (L858R/T790M/C797S), HTRF; for Dmax: NCI-H1975, H1975 # 25-LTC (L858R/T790M/C797S), maximum percentage of degradation
T1 construct: expressed in transfected cells; host or cells: H1975 clone #25 (lentiviral over-expression, endogenous EGFR knocked out by sgRNA)
Outline: as §1

Del19/C797S EGFR = assay: EGFR degradation HTRF assay in H1975-clone #23 (DC) cells; assay type: cell-based; conditions: H1975 #23 DC (Del19/C797S), 16h treatment; for DC50: HTRF; for Dmax (%): maximum percentage of degradation
Excerpt: (§2) H1975-clone #28(Del19/T790M/C797S, or abbr: DTC), H1975-clone #23(Del19/C797S, or abbr: DC), H1975-clone #25(L858R/T790M/C797S, or abbr: LTC) and H1975-clone #8 (L858R/C797S, or abbr: LC). EGFR-Del19:T790M/C797S, EGFR-Del19/C797S, EGFR-L858R/T790M/C797S and EGFR-L858R/C797S were stably expressed in H1975 cell lines by lentivirus-mediated over-expression, respectively. The EGFR over-expressed cells then underwent knockout, in which the EGFR targeting sgRNA was designed to only target the endogenous EGFR copies and preserve the exogenous EGFR copies. Followed by the knockout, the edited H1975 cells were seeded in 96 well plates at the concentration of […], cultured for about 2 weeks to allow single clones formation. The formed clones were screened by DNA sequencing and whole exon sequencing analysis for the desired edition. H1975-clone #28, H1975-clone #23, H1975-clone #25 and H1975-clone #8 were finally confirmed as homozygous Del19/T790M/C797S EGFR, Dell9/C797S EGFR, L858R/T790M/C797S EGFR and L858R/C797S EGFR clones, respectively.
(§3) H1975-#25, H1975-#28, H1975-#23 and H1975-#8 cells are treated with compounds diluted in 0.2% DMSO cell culture medium on day 2, incubate for 16h, 37° C., 5% CO2. the final concentration of compounds in all assay is start with 10 uM, 5-fold dilution, total 8 doses were included.
(§4) After 16h treatment, add HTRF lysis buffer to each well; seal the plate and incubate 1 hour at room temperature on a plate shaker; Once the cells are lysed, 16 μL of cell lysate are transferred to a PE 384-well HTRF detection plate; 4 μL of pre-mixed HTRF antibodies are added to each well; Cover the plate with a plate sealer, spin 1000 rpm for 1 min, Incubate overnight at room temperature; Read on BMG PheraStar with HTRF protocol (337 nm-665 nm-620 nm).
(§5) The IC50 (DC50) value of a compound can be obtained by fitting the following equation
(§6) Y=Bottom+(TOP−Bottom)/(1+((IC50/X)^hillslope))
(§7) Wherein, X and Y are known values, and IC50, Hillslope, Top and Bottom are the parameters obtained by fitting with software. Y is the inhibition percentage (calculated from the equation), X is the concentration of the compound: IC50 is the concentration of the compound when the 50% inhibition is reached. The smaller the IC50 value is, the stronger the inhibitory ability of the compound is. Vice versa, the higher the IC50 value is, the weaker the ability the inhibitory ability of the compound is: Hillslope represents the slope of the fitted curve, generally around 1*; Bottom represents the minimum value of the curve obtained by data fitting, which is generally 0%±20%; Top represents the maximum value of the curve obtained by data fitting, which is generally 100%±20%. The experimental data were fitted by calculating and analyzing with Dotmatics data analysis software.

L858R/C797S EGFR = target: T2, L858R/C797S EGFR (Homo sapiens, UniProt P00533, C797S/L858R); assay: EGFR degradation HTRF assay in H1975-clone #8 (LC) cells; assay type: cell-based; conditions: H1975 #8 LC (L858R/C797S), 16h treatment; for DC50: HTRF; for Dmax: NCI-H1975, maximum percentage of degradation
T2 construct: expressed in transfected cells; host or cells: H1975 clone #8 (lentiviral over-expression, endogenous EGFR knocked out by sgRNA)
Excerpt: as §2, §3, §4, §5, §6, §7

[1] = amide bond, 15-membered ring

T1 sequence (P00533 25-1210 T790M/C797S/L858R): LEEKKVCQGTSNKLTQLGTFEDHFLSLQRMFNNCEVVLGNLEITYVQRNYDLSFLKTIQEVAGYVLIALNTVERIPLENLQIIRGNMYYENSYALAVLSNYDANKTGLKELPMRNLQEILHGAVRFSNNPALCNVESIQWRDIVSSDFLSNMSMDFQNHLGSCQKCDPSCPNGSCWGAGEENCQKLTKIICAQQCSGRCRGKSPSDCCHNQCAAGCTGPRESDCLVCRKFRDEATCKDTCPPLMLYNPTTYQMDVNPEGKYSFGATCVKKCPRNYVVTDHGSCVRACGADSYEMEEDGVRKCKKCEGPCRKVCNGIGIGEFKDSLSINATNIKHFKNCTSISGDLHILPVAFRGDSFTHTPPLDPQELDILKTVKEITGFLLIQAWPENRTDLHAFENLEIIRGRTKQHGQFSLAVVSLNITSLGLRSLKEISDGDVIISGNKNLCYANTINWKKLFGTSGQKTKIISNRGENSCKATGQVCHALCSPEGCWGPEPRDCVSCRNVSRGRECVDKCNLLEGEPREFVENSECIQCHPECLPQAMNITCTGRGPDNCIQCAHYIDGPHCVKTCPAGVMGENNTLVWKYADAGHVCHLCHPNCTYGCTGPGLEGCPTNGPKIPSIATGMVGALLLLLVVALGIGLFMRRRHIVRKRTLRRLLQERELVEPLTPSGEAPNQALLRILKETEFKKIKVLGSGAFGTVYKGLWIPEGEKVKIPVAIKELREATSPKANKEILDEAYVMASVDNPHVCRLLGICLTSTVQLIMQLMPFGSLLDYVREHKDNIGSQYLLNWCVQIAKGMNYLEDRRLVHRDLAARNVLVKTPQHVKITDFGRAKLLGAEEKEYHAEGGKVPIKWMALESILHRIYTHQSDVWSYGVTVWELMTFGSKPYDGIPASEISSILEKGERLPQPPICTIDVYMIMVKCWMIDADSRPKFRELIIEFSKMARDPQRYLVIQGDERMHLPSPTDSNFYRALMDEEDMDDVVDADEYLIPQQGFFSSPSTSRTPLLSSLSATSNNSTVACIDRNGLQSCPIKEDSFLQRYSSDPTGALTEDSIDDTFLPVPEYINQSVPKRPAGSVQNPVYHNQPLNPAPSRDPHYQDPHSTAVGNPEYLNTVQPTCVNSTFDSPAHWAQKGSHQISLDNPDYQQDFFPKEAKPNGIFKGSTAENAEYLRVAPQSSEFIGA
T2 sequence (P00533 25-1210 C797S/L858R): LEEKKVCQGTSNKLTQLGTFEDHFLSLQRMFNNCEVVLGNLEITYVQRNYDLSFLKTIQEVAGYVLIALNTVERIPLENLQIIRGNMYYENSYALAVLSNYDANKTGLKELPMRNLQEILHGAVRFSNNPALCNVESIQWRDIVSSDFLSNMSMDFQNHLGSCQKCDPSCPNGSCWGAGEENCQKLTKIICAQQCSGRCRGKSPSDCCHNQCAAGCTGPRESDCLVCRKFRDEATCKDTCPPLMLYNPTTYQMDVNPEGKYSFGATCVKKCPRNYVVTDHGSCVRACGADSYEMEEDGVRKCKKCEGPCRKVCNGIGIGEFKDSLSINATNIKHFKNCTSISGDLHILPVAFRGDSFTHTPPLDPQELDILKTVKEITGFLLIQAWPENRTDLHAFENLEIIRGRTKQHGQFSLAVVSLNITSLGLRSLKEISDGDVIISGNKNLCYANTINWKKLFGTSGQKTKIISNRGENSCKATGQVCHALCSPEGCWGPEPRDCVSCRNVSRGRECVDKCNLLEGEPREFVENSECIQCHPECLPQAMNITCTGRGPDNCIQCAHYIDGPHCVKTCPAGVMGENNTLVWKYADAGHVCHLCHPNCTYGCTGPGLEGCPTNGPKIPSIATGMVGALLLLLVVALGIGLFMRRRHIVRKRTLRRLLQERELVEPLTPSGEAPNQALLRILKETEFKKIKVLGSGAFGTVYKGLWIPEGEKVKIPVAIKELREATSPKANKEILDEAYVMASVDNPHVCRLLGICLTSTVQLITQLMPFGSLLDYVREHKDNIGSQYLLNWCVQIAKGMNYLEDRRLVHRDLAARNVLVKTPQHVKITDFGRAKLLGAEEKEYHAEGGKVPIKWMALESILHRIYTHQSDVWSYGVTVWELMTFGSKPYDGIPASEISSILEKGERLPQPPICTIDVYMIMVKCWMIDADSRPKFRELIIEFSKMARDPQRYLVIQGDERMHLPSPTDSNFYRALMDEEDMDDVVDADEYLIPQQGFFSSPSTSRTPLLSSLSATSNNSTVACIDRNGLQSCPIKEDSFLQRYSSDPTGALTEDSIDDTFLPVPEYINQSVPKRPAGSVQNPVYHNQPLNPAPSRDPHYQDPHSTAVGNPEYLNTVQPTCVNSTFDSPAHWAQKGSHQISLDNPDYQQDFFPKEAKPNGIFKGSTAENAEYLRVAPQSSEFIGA

SMILES	DC50 (Del19/T790M/C797S EGFR) [nM]	Dmax (%) (Del19/T790M/C797S EGFR)	DC50 (L858R/T790M/C797S EGFR) [nM]	Dmax (L858R/T790M/C797S EGFR) [%]	DC50 (Del19/C797S EGFR) [nM]	Dmax (%) (Del19/C797S EGFR)	DC50 (L858R/C797S EGFR) [nM]	Dmax (L858R/C797S EGFR) [%]	ring closure, isolated yield ([1]; from Cc1cc(C(=O)O)cc(-c2cnn(C)c2OCCC[C@@H](C)Cn2c(N)nc3ccc(Br)cc32)n1, TBTU/TEA, DCM, 117.0 mM, 20.0 °C) [%]	ring closure, isolated yield ([1]; the molecule shown is the open-chain precursor, LiHMDS, DMF/THF, 56.7 mM, 25.0 °C) [%]
Cc1cc2cc(n1)-c1cnn(C)c1OCCC[C@@H](C)CN1/C(=N/C2=O)Nc2ccc(CN3CCC4(CC3)CCN(C(=O)[C@@H]3CCN(c5cc(F)c([C@H]6CCC(=O)NC6=O)c(F)c5)C3)CC4)cc21 [Example 9, (R)-3-(2,6-difluoro-4-((R)-3-(9-(((R,E)-1^1,2^6,7-trimethyl-3-oxo-5^2,5^3-dihydro-1^1H,5^1H-11-oxa-4-aza-5(2,1)-benzo[d]imidazola-2(2,4)-pyridina-1(4,5)-pyrazolacycloundecaphane-5^6-yl)methyl)-3,9-diazaspiro[5.5]undecane-3-carbonyl)pyrrolidin-1-yl)phenyl)piperidine-2,6-dione]	1.7	76.4	0.8	90.1	1	82.6	3.2	64.6	–	–
Cc1cc2cc(n1)-c1cnn(C)c1OCCC[C@@H](C)Cn1c(nc3ccc(Br)cc31)NC2=O	–	–	–	–	–	–	–	–	82	–
COC(=O)c1cc(C)nc(-c2cnn(C)c2OCC[C@H]2C[C@@H]2Cn2c(=N)[nH]c3ccc(Br)cc32)c1	–	–	–	–	–	–	–	–	–	49.6
Cc1cc2cc(n1)-c1cnn(C)c1OCCC[C@@H](C)CN1/C(=N/C2=O)Nc2ccc(CN3CCC(N4CCN(C(=O)[C@@H]5CCN(c6cc(F)c([C@H]7CCC(=O)NC7=O)c(F)c6)C5)CC4)CC3)cc21 [Example 6, (R)-3-(2,6-difluoro-4-((R)-3-(4-(1-(((R,E)-1^1,2^6,7-trimethyl-3-oxo-5^2,5^3-dihydro-1^1H,5^1H-11-oxa-4-aza-5(2,1)-benzo[d]imidazola-2(2,4)-pyridina-1(4,5)-pyrazolacycloundecaphane-5^6-yl)methyl)piperidin-4-yl)piperazine-1-carbonyl)pyrrolidin-1-yl)phenyl)piperidine-2,6-dione]	0.8	85.7	1.1	89.9	1.7	78.2	3	63.1	–	–
